We go through 2 molecules from US20090104145A1, “Mixtures of Anthranilamide Invertebrate Pest Control Agents” (priority 2004, published 2009).

Holding throughout (test): whole plant or invertebrate
Common to all, as to format: in vivo

In data set [1] the test system is green peach aphid (Myzus persicae Sulzer). The settings on record: Myzus persicae, in Raphanus sativus, read-out: % Mortality (observed). The protocol: (§1) The pest control protection afforded by the mixtures or compositions is not limited, however, to these species. The analysis of synergism or antagonism between the mixtures or compositions was determined using Colby's equation. The average % mortality data for the test compounds alone were inserted into the Colby's equation. If the observed average % mortality was higher than “p”, the expected % mortality, the mixture or composition had synergistic effects. If the observed average % mortality was equal to or lower than the expected mortality, the mixture or composition either had no synergistic effect or an antagonistic effect. In these tests, Compound 1 is the compound of Formula 1.
(§2) Test compounds were formulated using a solution containing 10% acetone, 90% water and 300 ppm X-77® Spreader Lo-Foam Formula non-ionic surfactant containing alkylarylpolyoxyethylene, free fatty acids, glycols and isopropanol (Loveland Industries, Inc.) to provide the desired concentration in ppm. Formulated test solutions were then applied in 1 mL volumes through a SUJ2 atomizer nozzle with ⅛ JJ custom body (Spraying Systems Co.) positioned 1.27 cm (0.5 inches) above the top of each test unit.
For evaluating control of green peach aphid (Myzus persicae Sulzer) through contact and/or systemic means, each test unit consisted of a small open container with a 12- to 15-day-old radish plant inside. This was pre-infested by placing on a leaf of the test plant 30 to 40 aphids on a piece of leaf excised from a culture plant (cut-leaf method). The larvae moved onto the test plant as the leaf piece desiccated. After pre-infestation, the soil of the test unit was covered with a layer of sand.
Test compounds were formulated and sprayed as described in Test A, replicated three times. After spraying of the formulated test compound, each test unit was allowed to dry for 1 hour and then a black, screened cap was placed on top. The test units were held for 6 days in a growth chamber at 19-21° C. and 50-70% relative humidity.

The subject of data set [2] is potato leafhopper (Empoasca fabae Harris). Conditions: Compound 1 0 ppm. The protocol: as §1, §2
For evaluating control of potato leafhopper (Empoasca fabae Harris) through contact and/or systemic means, each test unit consisted of a small open container with a 5- to 6-day-old Longio bean plant (primary leaves emerged) inside. White sand was added to the top of the soil, and one of the primary leaves was excised prior to application. Test compounds were formulated and sprayed with 3 replications as described for Test A. After spraying, the test units were allowed to dry for 1 hour before they were infested with 5 potato leafhoppers (18- to 21-day-old adults). A black, screened cap was placed on the top of each container. The test units were held for 6 days in a growth chamber at 19-21° C. and 50-70% relative humidity.

Data set [3] has as its system corn planthopper (Pereginus maidis). Conditions: rate 0.4 ppm. The procedure: as §1, §2
For evaluating control of corn planthopper (Pereginus maidis) through contact and/or systemic means, each test unit consisted of a small open cylindrical container with a 3- to 4-day-old corn (maize) plant (spike) inside. White sand was added to the top of the soil prior to application. Test compounds were formulated and sprayed with 3 replications as described for Test A. After spraying, the test units were allowed to dry for 1 hour before they were post-infested with 10 to 20 corn planthoppers (18- to 20-day-old nymphs) by sprinkling them onto the sand with a salt shaker. A black, screened cap was placed on the top of each container. The test units were held for 6 days in a growth chamber at 19-21° C. and 50-70% relative humidity.

In data set [4] the test system is silverleaf whitefly (Bemisia argentifolii Bellows and Perring). Conditions: Table 2B; rate 10 ppm, compound alone. The procedure: as §1
For evaluating control of silverleaf whitefly (Bemisia argentifolii Bellows and Perring) through contact and/or systemic means, each test unit consisted of a small open container with a 12- to 14-day-old cotton plant inside. This was pre-infested by placing test units into cages infested with adult whiteflies so that oviposition on the cotton leaves could occur. The adults were removed from the plants with an air-blast nozzle, and the test units were capped. The test units were then stored 2 to 3 days before spraying.
as §2
The results for all experimental compositions in this test were replicated three times. After spraying of the formulated test composition, each test unit was allowed to dry for 1 hour and the cap removed. The test units were held for 13 days in a growth chamber at 28° C. and 50-70% relative humidity.

The test system of data set [5] is cotton melon aphid (Aphis gossypii Glover). The settings on record: rate 2 ppm. The procedure:
as §1, §2
For evaluating control of cotton melon aphid (Aphis gossypii Glover) through contact and/or systemic means, each test unit consisted of a small open container with a 6- to 7-day-old cotton plant inside. This was pre-infested by placing on a leaf of the test plant 30 to 40 aphids on a piece of leaf excised from a culture plant (cut-leaf method). The larvae moved onto the test plant as the leaf piece desiccated. After pre-infestation, the soil of the test unit was covered with a layer of sand.
Test compounds were formulated and sprayed as described for Test A. The applications were replicated three times. After spraying of the formulated test compounds, each test unit was allowed to dry for 1 hour and then a black, screened cap was placed on top. The test units were held for 6 days in a growth chamber at 19-21° C. and 50-70% relative humidity.

As usually defined, the mortality is the share of the test organisms that died. For `O=[N+]([O-])NC1=NCCN1Cc1ccc(Cl)nc1` [Imidacloprid, imidacloprid], in data set [1], the mortality at 0.3 ppm amounted to 50%. Moreover, the “% Mortality (observed)” value is 20% in data set [2] (Imidacloprid 0.4 ppm), 0% in data set [2] (Imidacloprid 1.4 ppm) and 20% in data set [2] (Imidacloprid 4.6 ppm).
For the molecule dinotefuran, the “% mortality (obs)” value stood at 86% in data set [3], 74% in data set [4] and 64% in data set [5].
